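Each compound was tested at five concentrations against cells in 96-well plates for 48 hours. GI50 marks 50% less growth.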 Active and inactive are the calls of the source. No stated cut-off is given here; in the data, active = GI50 up to about 1.1 µM and inactive = higher.
Legend:
Assay in all cases: growth of human tumour cells (NCI), 48 h
A498 = system: A498
BT-549 = system: BT-549
CAKI-1 = system: CAKI-1
COLO 205 = system: COLO 205
HCC 2998 = system: HCC 2998
HCT-116 = system: HCT-116
HOP-62 = system: HOP-62
K562 = system: K562
LOX IMVI = system: LOX IMVI
MCF7 = system: MCF7
MDA-MB-231 = system: MDA-MB-231
MDA-MB-435 = system: MDA-MB-435
MOLT-4 = system: MOLT-4
NCI-H23 = system: NCI-H23
NCI-H460 = system: NCI-H460
PC-3 = system: PC-3
SNB-19 = system: SNB-19
T47D = system: T47D
UACC-62 = system: UACC-62
UO-31 = system: UO-31

Row | Structure (SMILES) | GI50 (A498) | GI50 (BT-549) | GI50 (CAKI-1) | GI50 (COLO 205) | GI50 (HCC 2998) | GI50 (HCT-116) | GI50 (HOP-62) | GI50 (K562) | GI50 (LOX IMVI) | GI50 (MCF7) | GI50 (MDA-MB-231) | GI50 (MDA-MB-435) | GI50 (MOLT-4) | GI50 (NCI-H23) | GI50 (NCI-H460) | GI50 (PC-3) | GI50 (SNB-19) | GI50 (T47D) | GI50 (UACC-62) | GI50 (UO-31)
1 | N#Cc1c(-c2ccc([N+](=O)[O-])cc2)c2c([nH]c1=O)-c1ccccc1CCC2 | 46.3 µM (inactive) | 24.9 µM (inactive) | > 100 µM (inactive) | 83.9 µM (inactive) | 22.6 µM (inactive) | 60.4 µM (inactive) | 40.5 µM (inactive) | 36.7 µM (inactive) | 56.6 µM (inactive) | 33.4 µM (inactive) | > 100 µM (inactive) | 67.1 µM (inactive) | 39.4 µM (inactive) | > 100 µM (inactive) | 51.1 µM (inactive) | 80.2 µM (inactive) | 70.1 µM (inactive) | 21.5 µM (inactive) | 28.1 µM (inactive) | 86.3 µM (inactive)
2 | C[C@]12CC[C@H](O)C[C@@H]1CC[C@@H]1[C@@H]2CC[C@]2(C)[C@@H](c3cc(C(F)(F)F)[nH]n3)CC[C@@H]12 | 8.59 µM (inactive) | 8.39 µM (inactive) | 13.2 µM (inactive) | 4.13 µM (inactive) | 15 µM (inactive) | 3.35 µM (inactive) | 7.38 µM (inactive) | 3.25 µM (inactive) | 6.11 µM (inactive) | 5.75 µM (inactive) | 6.67 µM (inactive) | 10.1 µM (inactive) | 3.95 µM (inactive) | 7.11 µM (inactive) | 3.18 µM (inactive) | 6.38 µM (inactive) | 9.68 µM (inactive) | 5.26 µM (inactive) | 14.1 µM (inactive) | 1.51 µM (inactive)
3 | CC1=C(/C=C/C(C)=C/C=C/C(C)=C/C(=O)O)C(C)(C)CCC1 [TRETINOIN] | > 74.5 µM (inactive) | 37.3 µM (inactive) | > 70.6 µM (inactive) | 49.3 µM (inactive) | 51.6 µM (inactive) | 48.6 µM (inactive) | 49.9 µM (inactive) | 39.4 µM (inactive) | 31.9 µM (inactive) | 29 µM (inactive) | 50.4 µM (inactive) | > 58.5 µM (inactive) | 43.6 µM (inactive) | 55.3 µM (inactive) | 48.8 µM (inactive) | 39.6 µM (inactive) | 47.5 µM (inactive) | 2.55 µM (inactive) | > 64.3 µM (inactive) | > 64.3 µM (inactive)
4 | CCC/N=C(/NC(=O)c1ccc(Cl)cc1)SC | 27.4 µM (inactive) | 25.5 µM (inactive) | > 100 µM (inactive) | > 100 µM (inactive) | > 100 µM (inactive) | > 100 µM (inactive) | > 100 µM (inactive) | 44.1 µM (inactive) | > 100 µM (inactive) | 75.9 µM (inactive) | > 100 µM (inactive) | > 100 µM (inactive) | 58.7 µM (inactive) | 46.3 µM (inactive) | 90.6 µM (inactive) | 80.5 µM (inactive) | 17.6 µM (inactive) | 65.9 µM (inactive) | > 100 µM (inactive) | 15 µM (inactive)
5 | C=CCSC1=N/C(=C\c2ccc(OC)cc2)C(=O)N1CC=C | 14.9 µM (inactive) | 27 µM (inactive) | 50.5 µM (inactive) | 20.4 µM (inactive) | 23.9 µM (inactive) | 25.4 µM (inactive) | 74.6 µM (inactive) | 23.7 µM (inactive) | 33 µM (inactive) | 28.4 µM (inactive) | 37.2 µM (inactive) | 26.4 µM (inactive) | 13.7 µM (inactive) | 28.4 µM (inactive) | 27.6 µM (inactive) | 20.8 µM (inactive) | 84.3 µM (inactive) | 16.2 µM (inactive) | 30.3 µM (inactive) | 34.3 µM (inactive)
6 | CC(=O)Nc1ccc(S(=O)(=O)c2nnc(NC(C)=O)s2)cc1 | > 100 µM (inactive) | > 100 µM (inactive) | > 100 µM (inactive) | 0.215 µM (active) | > 100 µM (inactive) | > 100 µM (inactive) | > 100 µM (inactive) | > 100 µM (inactive) | > 100 µM (inactive) | > 100 µM (inactive) | > 100 µM (inactive) | > 100 µM (inactive) | > 100 µM (inactive) | > 100 µM (inactive) | > 100 µM (inactive) | 0.401 µM (active) | > 100 µM (inactive) | > 100 µM (inactive) | > 100 µM (inactive) | > 100 µM (inactive)
7 | CC(C)(Br)C(=O)C(Br)Br | > 39.8 µM (inactive) | 4.9 µM (inactive) | 1.95 µM (inactive) | 2.74 µM (inactive) | 17.1 µM (inactive) | 4.26 µM (inactive) | > 42.3 µM (inactive) | 2.95 µM (inactive) | 4.86 µM (inactive) | 6.38 µM (inactive) | 5.56 µM (inactive) | 5.58 µM (inactive) | 1.67 µM (inactive) | 4.61 µM (inactive) | 18.1 µM (inactive) | 5.4 µM (inactive) | 19.7 µM (inactive) | 6.22 µM (inactive) | 10.5 µM (inactive) | 17.5 µM (inactive)
8 | Nc1nc2c(ncn2C2CCC(CO)O2)c(=O)n1C(=O)c1ccccc1 (stereo not given) | > 100 µM (inactive) | > 100 µM (inactive) | > 100 µM (inactive) | > 100 µM (inactive) | > 100 µM (inactive) | > 100 µM (inactive) | > 100 µM (inactive) | > 100 µM (inactive) | > 100 µM (inactive) | > 100 µM (inactive) | > 100 µM (inactive) | > 100 µM (inactive) | > 100 µM (inactive) | > 100 µM (inactive) | > 100 µM (inactive) | > 100 µM (inactive) | > 100 µM (inactive) | > 100 µM (inactive) | > 100 µM (inactive) | > 100 µM (inactive)
9 | O=C1c2ccccc2NC(=S)[C@@H]2CCCN12 | > 100 µM (inactive) | > 100 µM (inactive) | > 100 µM (inactive) | > 100 µM (inactive) | > 100 µM (inactive) | > 100 µM (inactive) | > 100 µM (inactive) | > 100 µM (inactive) | > 100 µM (inactive) | > 100 µM (inactive) | > 100 µM (inactive) | > 100 µM (inactive) | > 100 µM (inactive) | > 100 µM (inactive) | > 100 µM (inactive) | > 100 µM (inactive) | > 100 µM (inactive) | > 100 µM (inactive) | > 100 µM (inactive) | > 100 µM (inactive)
10 | Cc1ccc(OCC2OC(n3cnc4nc(Cl)nc(Cl)c43)CC2Oc2ccc(C)cc2)cc1 (stereo not given) | 22.4 µM (inactive) | 9.51 µM (inactive) | 4.75 µM (inactive) | 9.25 µM (inactive) | 3.39 µM (inactive) | 4.55 µM (inactive) | 16.3 µM (inactive) | 1.95 µM (inactive) | 2 µM (inactive) | 5.61 µM (inactive) | 2.51 µM (inactive) | 5.3 µM (inactive) | 2.01 µM (inactive) | 7.71 µM (inactive) | 6.55 µM (inactive) | 11.6 µM (inactive) | 15.7 µM (inactive) | 6.19 µM (inactive) | 6.04 µM (inactive) | 10.1 µM (inactive)
11 | CC(=O)NCC1OC2COC(c3ccccc3)OC2C(NC(=O)c2ccccc2)C1OC(=O)c1ccccc1 (stereo not given) | 44.5 µM (inactive) | > 100 µM (inactive) | > 100 µM (inactive) | > 100 µM (inactive) | > 100 µM (inactive) | > 100 µM (inactive) | > 100 µM (inactive) | > 100 µM (inactive) | > 100 µM (inactive) | > 100 µM (inactive) | > 100 µM (inactive) | > 100 µM (inactive) | 86.7 µM (inactive) | > 100 µM (inactive) | > 100 µM (inactive) | 33.3 µM (inactive) | > 100 µM (inactive) | 34.5 µM (inactive) | > 100 µM (inactive) | > 100 µM (inactive)
12 | N[C@H]1c2c(Br)sc(Br)c2C(=O)[C@H]1O | > 100 µM (inactive) | 6.3 µM (inactive) | 0.214 µM (active) | 6.18 µM (inactive) | 13.8 µM (inactive) | 16.4 µM (inactive) | 18.2 µM (inactive) | 3.44 µM (inactive) | 3.61 µM (inactive) | 13.3 µM (inactive) | 18.7 µM (inactive) | 13.7 µM (inactive) | 5.14 µM (inactive) | 3.64 µM (inactive) | 19.2 µM (inactive) | 28.5 µM (inactive) | 21.8 µM (inactive) | 21.9 µM (inactive) | 6.79 µM (inactive) | 20.3 µM (inactive)
13 | COc1ccc(-n2cnc3c(NC(CCSC)C(=O)O)ncnc32)cc1 (stereo not given) | > 100 µM (inactive) | > 100 µM (inactive) | > 100 µM (inactive) | > 100 µM (inactive) | > 100 µM (inactive) | > 100 µM (inactive) | > 100 µM (inactive) | > 100 µM (inactive) | > 100 µM (inactive) | > 100 µM (inactive) | > 100 µM (inactive) | > 100 µM (inactive) | > 100 µM (inactive) | > 100 µM (inactive) | > 100 µM (inactive) | > 100 µM (inactive) | > 100 µM (inactive) | > 100 µM (inactive) | > 100 µM (inactive) | > 100 µM (inactive)
14 | CN(C)CC1CCC/C(=C\c2ccc(OC(=O)/C=C/c3ccc(Cl)cc3)cc2)C1=O (stereo not given) | 8.53 µM (inactive) | 0.217 µM (active) | 2.62 µM (inactive) | 0.78 µM (active) | 5.43 µM (inactive) | 3.56 µM (inactive) | 6.25 µM (inactive) | 1.23 µM (inactive) | 1.58 µM (inactive) | 1.08 µM (active) | 5.21 µM (inactive) | 5.28 µM (inactive) | 1.05 µM (active) | 6.65 µM (inactive) | 8.02 µM (inactive) | 5.35 µM (inactive) | 8.43 µM (inactive) | 1.15 µM (inactive) | 8.81 µM (inactive) | 4.99 µM (inactive)

Source: ChEMBL document CHEMBL1201862, “PubChem BioAssay data set” (2004)
